Assays:
Assay type in all cases: cell-based, mouse
[1] = test system: pSmad2/Smad2; test: Western blotting of pSmad2 in MSTN-induced atrophic myotube cells
Description: (§1) MSTN is known to induce atrophy by increasing UPP-mediated protein degradation through activation of the ActRIIB-Smad2 signaling pathway. Phosphorylated Smad2 (pSmad2) activates this UPP-mediated proteolytic signaling. Activated UPP is involved in the degradation of MyoD and is regulated by the E3 ligase, MAFbx. To investigate the mechanism of Rh2 in this signal transduction, changes of the amount of Rh2-induced phosphorylation of Smad2 and the amount of MAFbx and MyoD expression were determined. For this purpose, myotube cells were treated with 0.4 μg/ml MSTN alone, or with combination of 0.4 μg/ml MSTN and 1 μg/ml or 10 μg/ml Rh2. Western blotting was performed using pSmad2 antibody, MAFbx antibody, and MyoD antibody respectively.
(§2) The bands of Western blot and the relative fold change values of pSmad2/Smad2, MAFbx/GAPDH and MyoD/GAPDH in each treatment conditions were shown in FIG. 4.

[2] = test system: MSTN-induced atrophic myotube cells (C2C12); test: Myotube width in MSTN-induced atrophic myotubes treated with Rh2
Description: (§3) C2C12 myotube cells were fixed with 4% (w/v) paraformaldehyde (Biosesang) for 15 minutes and then treated with 0.2% (v/v) Triton X-100, and blocked with 5% (w/v) BSA for 6 h. The cells were then stained with Myosin Heavy Chain (MHC) antibody (Santa Cruz, sc-20641, 1: 1000) for 12 h at 4° C. and then incubated with Alexa Fluor 488 conjugated secondary antibody at room temperature for 4 h. Images were acquired via HCS equipment (Molecular Devices) and quantified using ImageJ software. The width of myotube cells was quantified by measuring a total of more than 100 myotube cell widths in randomly selected five regions. The width per myotube was determined as the average of three independent measurements.
To investigate the effect of Rh2 on MSTN-induced atrophy, myotubes were treated with 0.4 ug/ml MSTN alone for 24 hours or treated with combination of 0.4 ug/ml MSTN and 1 ug/ml or 10 ug/ml Rh2 (Sigma, 73658) for 24 hours. In order to measure the change of the myotube width, the myotube cells were stained with MHC antibody as in the above Experimental Example 1, and cell images were obtained using HCS, and the width of myotube was quantified using ImageJ.

[3] = test system: MyoD; test: Western blotting of MyoD in MSTN-induced atrophic myotube cells
Description: as §1, §2

[4] = test system: C2C12 myotube cells; test: Induction of muscular atrophy cell model: myotube width after MSTN treatment; conditions: 24 hours, C2C12 myotubes
Description: The model of muscular atrophy was constructed by differentiating mouse myoblast cell lines (C2C12 ATCC CRL-1772) into myotube cells followed by treating with MSTN.
Specifically, the cell lines were cultured in DMEM (Gibco) supplemented with 10% (v/v) Fetal Bovine Serum (FBS), 100 U/ml penicillin and 100 U/ml streptomycin (Sigma) at 37° C. in 5% CO2. For differentiating the cell lines into myotube cells, the cells were grown to 80-90% confluence and then cultured in DMEM supplemented with 2% (v/v) horse serum (Horse Serum, HS, Gibco). To verify the differentiation into myotube cells, the merge of multiple myoblasts to one long myotube cells were observed by the microscopic images.
In order to induce an atrophy model, differentiated myotube cells were cultured in serum-free DMEM medium for 3 hours, and then MSTN was treated with 0.4 μg/ml, […], 0.8 μg/ml and 1.2 μg respectively for 24 hours. […]
as §3, with “The cells were then stained with Myosin Heavy Chain (MHC) antibody (Santa Cruz, sc-20641, 1: 1000) for 12 h at 4° C. and then incubated with Alexa Fluor 488 conjugated secondary antibody at room temperature for 4 h.” left out

[5] = test system: MAFbx; test: Western blotting of MAFbx in MSTN-induced atrophic myotube cells
Description: as §1, §2

Myostatin [MSTN]
amount of pSmad2 (pSmad2/Smad2), increase compared with normal condition ([1]; 0.4 μg/ml MSTN alone): about 50%
reduction of width of myotube compared to normal cells ([2]; 0.4 ug/ml MSTN alone, 24 hours): about 50%
amount of MyoD (MyoD/GAPDH), % of the normal condition ([3]; 0.4 μg/ml MSTN alone): about 30%
decrease of width of myotube compared to the normal ([4]; 0.4 ug/ml MSTN, control width = 1.0): about 45%
decrease of width of myotube compared to the normal ([4]; as the concentration of MSTN increased (up to 1.2 μg)): about 60%
amount of MAFbx (MAFbx/GAPDH), increase compared with normal condition ([5]; 0.4 μg/ml MSTN alone): about 50%

CC(C)=CCC[C@](C)(O)[C@H]1CC[C@]2(C)[C@@H]1[C@H](O)C[C@@H]1[C@@]3(C)CC[C@H](O[C@@H]4O[C@H](CO)[C@@H](O)[C@H](O)[C@H]4O)C(C)(C)[C@@H]3CC[C@]12C [Rh2, ginsenoside Rh2]
amount of pSmad2 (pSmad2/Smad2) relative to normal conditions ([1]; 0.4 μg/ml MSTN + 10 ug/ml Rh2): kept at the same level as normal conditions
width of myotube as % of that of normal cells ([2]; 0.4 ug/ml MSTN + 1 ug/ml Rh2, 24 hours): about 70%
width of myotube as % of that of normal cells ([2]; 0.4 ug/ml MSTN + 10 ug/ml Rh2, 24 hours): above 100%
amount of MyoD (MyoD/GAPDH) relative to normal conditions ([3]; 0.4 μg/ml MSTN + 10 ug/ml Rh2): kept at the same level as normal conditions
amount of MAFbx (MAFbx/GAPDH) relative to normal conditions ([5]; 0.4 μg/ml MSTN + 10 ug/ml Rh2): kept at the same level as normal conditions

Reference: patent publication US11179410B2, “Pharmaceutical composition for improving, preventing or treating muscle related disease comprising ginsenoside Rh2” (KOREA ADVANCED INSTITUTE OF SCIENCE AND TECHNOLOGY, priority 2018, dated 2021)
